Results from ChEMBL document CHEMBL4020832, “Development of (6 R)-2-Nitro-6-[4-(trifluoromethoxy)phenoxy]-6,7-dihydro-5 H-imidazo[2,1- b][1,3]oxazine (DNDI-8219): A New Lead for Visceral Leishmaniasis” (J Med Chem, 2018).

Legend:
Type in all cases: ADME, microsome
Liver [1] = experiment: Metabolic stability in human liver microsomes assessed as parent compound remaining at 1 uM after 1 hr
Liver [2] = experiment: Metabolic stability in CD-1 mouse liver microsomes assessed as parent compound remaining at 1 uM after 1 hr
Liver [3] = experiment: Metabolic stability in CD-1 mouse liver microsomes assessed as parent compound remaining at 0.5 uM after 0.5 hr
[4] = Metabolic stability in hamster liver microsomes assessed as parent compound remaining at 0.5 uM after 0.5 hr; conditions: read-out: Stability
Liver [5] = experiment: Metabolic stability in human liver microsomes assessed as parent compound remaining at 0.5 uM after 0.5 hr
[6] = Metabolic stability in hamster liver microsomes assessed as parent compound remaining at 1 uM after 1 hr; conditions: read-out: Stability

SMILES	Stability (Liver [1]) [%]	Stability (Liver [2]) [%]	Stability (Liver [3]) [%]	remaining at 0.5 h, 0.5 µM [4] [%]	Stability (Liver [5]) [%]	remaining at 1 h, 1 µM [6] [%]
O=[N+]([O-])c1cn2c(n1)OC[C@H](Oc1ccc(-c3ccc(OC(F)(F)F)cc3)nc1)C2	40	35				
O=[N+]([O-])c1cn2c(n1)OC[C@H](OCc1ncccc1-c1ccc(OC(F)(F)F)cc1)C2	8	0.2				
O=[N+]([O-])c1cn2c(n1)OC[C@H](OCc1cccc(-c3ccc(OC(F)(F)F)cc3)n1)C2			68	31	68	
O=[N+]([O-])c1cn2c(n1)OC[C@@H](OCc1csc(-c3ccc(OC(F)(F)F)cc3)n1)C2			75	43	78	
O=C(Nc1ccccc1OC(F)(F)F)N[C@@H]1COc2nc([N+](=O)[O-])cn2C1			43	64	74	
O=[N+]([O-])c1cn2c(n1)OC[C@@H](OCc1cccc(-c3ccc(OC(F)(F)F)cc3)n1)C2			78	31	75	
O=[N+]([O-])c1cn2c(n1)OC[C@@H](OCc1ccn(-c3ccc(OC(F)(F)F)cc3)n1)C2	87	67				
O=[N+]([O-])c1cn2c(n1)OC[C@H](OCc1ccc(-c3ccc(OC(F)F)cc3)cn1)C2	49	56	86	45	71	11
O=C(N[C@H]1COc2nc([N+](=O)[O-])cn2C1)c1cccc(OC(F)(F)F)c1						59
O=[N+]([O-])c1cn2c(n1)OC[C@@H](OCc1ccc(-c3ccc(OC(F)(F)F)cc3F)cn1)C2			84	69	88	
O=[N+]([O-])c1cn2c(n1)OC[C@@H](OCc1ccc(-c3ccc(OC(F)(F)F)cc3Cl)cn1)C2			100	75	73	
O=[N+]([O-])c1cn2c(n1)OC[C@H](OCc1cccnc1-c1ccc(OC(F)(F)F)cc1)C2	35	44				3
O=[N+]([O-])c1cn2c(n1)OC[C@H](OCc1ccc(OC(F)(F)F)cc1)C2		86		31		
O=[N+]([O-])c1cn2c(n1)OC[C@@H](OCc1cccc(-c3ccc(F)cc3)n1)C2			74		96	
O=[N+]([O-])c1cn2c(n1)OC[C@@H](OCc1ccc(-c3ccc(OC(F)F)cc3)cn1)C2			88	59	92	
O=[N+]([O-])c1cn2c(n1)OC[C@@H](OCc1ccc(OC(F)(F)F)cc1)C2 [PRETOMANID]	82					
CC1(C)Oc2nc([N+](=O)[O-])cn2CC1OCc1ccc(OC(F)(F)F)cc1 (stereo not given)	92	72				
O=[N+]([O-])c1cn2c(n1)OC[C@H](OCc1ccc(-c3ccc(OC(F)(F)F)cc3Cl)cn1)C2	16	27	81	57	65	5.8
O=[N+]([O-])c1cn2c(n1)OC[C@H](Oc1ccc(-c3ccc(F)cc3)nc1)C2	73	59				
O=[N+]([O-])c1cn2c(n1)OC[C@H](OCc1ccc(-c3ccc(F)cc3)cn1)C2	58	66	77	37	85	10
O=[N+]([O-])c1cn2c(n1)OC[C@H](OCc1cccc(-c3ccc(F)cc3)n1)C2			68		79	
O=[N+]([O-])c1cn2c(n1)OC[C@H](OCc1ccc(-c3ccc(OC(F)F)cc3)nc1)C2	58	56				7.9
O=[N+]([O-])c1cn2c(n1)OC[C@H](NCc1ccc(OC(F)(F)F)cc1)C2		61				7.5
